This assay has as its system Bile Acid Itch Model in Male C57BL/6 Mice. As to the kind of experiment: Bile acid (deoxycholic acid) induced itch model (Example 9). It is filed as in vivo. The settings on record: 10 mg/kg oral gavage 90 min before deoxycholic acid (25 μg). The method, then: In order to assess the antipruritic effect of PF-06372865 in another clinically relevant disease, the bile acid induced itch model is used. In the bile acid induced itch model, the fur at the base of the neck is shaved, and mice are placed in individual cylinders on a glass shelf. Mice are acclimatized to the experimental room, restraint apparatus and investigators for 2-hour periods on 2 successive days before experiments. The mice are dosed with 10 mg/kg PF-06372865 by oral gavage ninety (90) minutes before they are injected with deoxycholic acid. Deoxycholic acid (25 μg in DMSO), is administered by intradermal injection at the nape of the neck. Scratching behavior is quantified by 2 observers unaware of tested agents. A scratch is defined as lifting the hind limb to the injection site and then a placing of the paw on the floor, regardless of the number of strokes. If counts differed by greater than 5 scratches over a 30-minute period, both observers reevaluate the records. The number of scratching bouts directed to the nape of the neck between 15 to 210 min after injection are recorded.

Data on one compound can be found in patent US11571421B2, “GABAA positive allosteric modulator compounds for treatment of itch and/or dermatitis” (NeuroCycle Therapeutics, Inc., priority 2018, dated 2023).

In the case of `CCn1cnc2c(-c3ccc(F)c(-c4ccc(S(=O)(=O)CC)cc4OC)c3)cnnc21` [PF-06372865], the “scratching bouts compared to vehicle injection” value is on record as “significant reduction in scratching bouts”.
